Data: article PMC5061469 (International Journal for Parasitology: Drugs and Drug …, 2016)
Several values for one entry are separate records, joined by “and”; a condition that tells them apart may be missing. Equal values may be shown once. Entries after “also recorded” stand apart in the source; their conditions may differ. Read-outs that look alike come from different tables or passages of the source.

Key:
[1] = system: P. berghei ANKA; assay: In vivo antimalarial activity, classical 4-day suppressive test; set-up: species or system Plasmodium berghei (Swiss male mice); settings: oral 50 mg/kg/day x 4 days; for % Suppression of parasitemia: day 4
[2] = system: Salmonella typhimurium TA1535/pSK1002; assay: Genotoxicity assay, SOS/umu test; type: cell-based; settings: for induction factor (IF): at non-cytotoxic concentrations with or without S9 fraction; for genotoxicity (SOS/umu test): with or without S9 fraction
[3] = molecular target: PM2 (plasmepsin II) (Plasmodium falciparum, UniProt P46925); assay: Plasmepsin assay; type: biochemical, P. falciparum; settings: tested at 5 μM
Chain of PM2 (plasmepsin II) (P46925 125-453): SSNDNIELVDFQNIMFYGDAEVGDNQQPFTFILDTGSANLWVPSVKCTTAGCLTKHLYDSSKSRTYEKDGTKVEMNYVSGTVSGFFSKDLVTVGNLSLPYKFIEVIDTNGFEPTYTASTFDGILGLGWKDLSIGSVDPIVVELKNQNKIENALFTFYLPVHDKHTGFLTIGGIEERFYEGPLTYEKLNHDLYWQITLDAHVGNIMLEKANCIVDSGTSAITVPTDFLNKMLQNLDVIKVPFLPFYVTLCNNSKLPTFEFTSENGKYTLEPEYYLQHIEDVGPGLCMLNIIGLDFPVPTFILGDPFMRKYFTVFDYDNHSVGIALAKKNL

[4] = Cytotoxicity assay; type: cell-based, African Green Monkey; settings: African green monkey, VERO cells (kidney epithelial cells)
[5] = system: VERO cells; assay: Cytotoxicity assay; type: cell-based, African Green Monkey; settings: for SI (selectivity index): CC50 (cytotoxicity)/IC50 (FCR-3); for CC50: inhibition of 50% of VERO cells survival, 48 h, MTT
[6] = system: multidrug resistant FCR-3 strain of P. falciparum; assay: In vitro antiplasmodial activity; type: cell-based, Plasmodium falciparum
[7] = system: β-hematin formation; assay: β-hematin inhibition assay; type: biochemical; settings: screened between 0.44 and 110 μM; for IC50: read-out: β-hematin inhibition activity IC50
[8] = system: multidrug resistant (C235) strain of P. falciparum; assay: In vitro antiplasmodial activity; type: cell-based, Plasmodium falciparum
[9] = system: chloroquine sensitive (D6) strain of P. falciparum; assay: In vitro antiplasmodial activity; type: cell-based, Plasmodium falciparum
[10] = system: hemozoin formation pathway in D6 culture; assay: Target validation in P. falciparum, heme speciation assay; type: cell-based, Plasmodium falciparum; settings: increasing concentrations of compound
[11] = Heme binding studies; settings: 40% DMSO, 0.02 M HEPES, pH 7.4
[12] = Plasmodium falciparum, FCR3, read-out: FCR-3 IC50, P. falciparum multidrug-resistant strain FCR-3
[13] = read-out: FCR-3 IC50, P. falciparum multidrug-resistant strain FCR-3
[14] = Plasmodium falciparum, 72 h, read-out: Antimalarial activity IC50 C235, multidrug-resistant strain C235, 72 h
[15] = Plasmodium falciparum, D6, 72 h, read-out: Antimalarial activity IC50 D6, chloroquine sensitive strain D6, 72 h
[16] = read-out: Antimalarial activity IC50 D6, chloroquine sensitive strain D6, 72 h

Compound | genotoxicity (SOS/umu test) [2] | inhibition of PM2 compared to the control [3] | CC50 at 48 h [4] | SI (selectivity index) [5] | IC50 [6, 12] | IC50 [6, 13] | also measured
O=[N+]([O-])c1ccc(N2CCN(CCC(O)c3ccc(F)cc3)CC2)c(C(F)(F)F)c1 (stereo not shown) [Compound 24, 1-(4-fluorophenyl)-3-[4-(4-nitro-2-trifluoromethylphenyl)piperazin-1-yl]propan-1-ol] | absence of genotoxicity; also recorded: not considered genotoxic | no significant inhibition | 88 µM | 244 | – | – | MSD (mean survival time) ([1]; P. berghei-infected mice): 8 days; % Suppression of parasitemia ([1]; P. berghei-infected mice): 17 ± 8%; induction factor (IF) [2]: lower than 2
O=[N+]([O-])c1cc(C(F)(F)F)ccc1N1CCN(CCC(O)c2csc3ccc(F)cc23)CC1 (stereo not shown) [Compound 15, 1-(5-fluorobenzo[b]thiophen-3-yl)-3-[4-(2-nitro-4-trifluoromethylphenyl)piperazin-1-yl] propan-1-ol] | – | – | > 150 µM | >50 | 2.23 ± 0.2 µM | – | –
OC(CCN1CCN(c2ccc(C(F)(F)F)cc2)CC1)c1csc2ccc(F)cc12 (stereo not shown) [Compound 16, 1-(5-fluorobenzo[b]thiophen-3-yl)-3-(4-(4-trifluoromethylphenyl)piperazin-1-yl) propan-1-ol] | – | no significant inhibition | > 250 µM | >100 | 1.68 ± 0.6 µM | – | –
O=[N+]([O-])c1ccc(N2CCCN(CCC(O)c3csc4ccc(F)cc34)CC2)c(C(F)(F)F)c1 (stereo not shown) [Compound 17, 1-(5-fluorobenzo[b]thiophen-3-yl)-3-[4-(4-nitro-2-trifluoromethylphenyl)-1,4-diazepan-1-yl]propan-1-ol] | – | no significant inhibition | 13.3 µM | 18 | < 1 µM | 0.75 ± 0.02 µM | –
OC(CCN1CC=C(c2ccc(F)cc2)CC1)c1ccc(F)cc1 (stereo not shown) [Compound 26, 1-(4-fluorophenyl)-3-[4-(4-fluorophenyl)-3,6-dihydropyridin-1(2H)-yl]propan-1-ol] | – | – | > 100 µM | >150 | < 1 µM | 0.66 ± 0.01 µM | –
CCN(CC)CCCC(C)Nc1ccnc2cc(Cl)ccc12 (stereo not shown) [CQ, chloroquine, reference compound] | – | – | > 50 µM | – | 0.13 µM | – | IC50 [7]: 48.7 ± 2.7 µM; IC50 [8, 14]: 0.048 ± 0.004 µM; IC50 [9, 15]: 0.014 ± 0.001 µM
OC(CCN1CCN(c2ccc(C(F)(F)F)cc2)CC1)c1ccc(F)c2ccccc12 (stereo not shown) [Compound 21] | – | – | – | – | – | 0.93 ± 0.7 µM | CC50 [5]: > 100 µM
OC(CCN1CC=C(c2ccc(F)cc2)CC1)c1ccc(F)c2ccccc12 (stereo not shown) [Compound 23, 1-(4-Fluoronaphthalen-1-yl)-3-[4-(4-fluorophenyl)-3,6-dihydropyridin-1(2H)-yl] propan-1-ol] | absence of genotoxicity; also recorded: not considered genotoxic | no significant inhibition | 49.5 µM | 124 | – | – | β-hematin inhibition activity IC50 [7]: Not active; MSD (mean survival time) ([1]; P. berghei-infected mice): 9 days; % Suppression of parasitemia ([1]; P. berghei-infected mice): 73 ± 16%; induction factor (IF) [2]: lower than 2; IC50 [8, 14]: ≤ 0.28 µM; IC50 ([8]; read-out: Antimalarial activity IC50 C235, multidrug-resistant strain C235, 72 h): 0.28 ± 0.05 µM; IC50 [9, 15]: ≤ 0.19 µM; IC50 [9, 16]: 0.19 ± 0.04 µM
O=[N+]([O-])c1ccc(NC2CCNCC2)c(C(F)(F)F)c1 [AM02, 4-(4-nitro-2-trifluoromethylphenyl)aminopiperidine] | not considered genotoxic | – | – | – | 4.3 ± 0.9 µM | – | –
O=[N+]([O-])c1ccc(N2CCC(NCCC(O)c3ccc(F)c4ccccc34)CC2)c(C(F)(F)F)c1 (stereo not shown) [Compound 22, 1-(4-Fluoronaphthalen-1-yl)-3-((1-(4-nitro-2-(trifluoromethyl)phenyl)piperidin-4-yl)amino) propan-1-ol] | absence of genotoxicity; also recorded: not considered genotoxic | no significant inhibition | 5.5 µM | 37 | – | – | IC50 [7]: 80.7 ± 1.7 µM; MSD (mean survival time) ([1]; P. berghei-infected mice): > 35 days; cure / survival of treated mice ([1]; P. berghei-infected mice): complete cure; % Suppression of parasitemia ([1]; P. berghei-infected mice, 50 mg/kg/day): 98 ± 1% and 98%; signs of toxicity in treated mice [1]: no signs of toxicity; induction factor (IF) [2]: lower than 2; levels of free heme and hemozoin [10]: remained constant; IC50 [9, 15]: ≤ 0.19 µM; IC50 [9, 16]: 0.11 ± 0.01 µM; affinity for the μ-oxo dimer form of heme (binding curve) [11]: affinity resembling that of chloroquine
OC(CCN1CC=C(c2ccc(F)cc2)CC1)c1ccc(C(F)(F)F)cc1 (stereo not shown) [Compound 20, 3-[4-(4-fluorophenyl)-3,6-dihydropyridin-1(2H)-y])-1-(4-(trifluoromethylphenyl)propan-1-ol] | – | – | – | – | – | 5.6 ± 2.3 µM | CC50 [5]: > 350 µM
COc1cccc2c1C(=O)c1c(O)c3c(c(O)c1C2=O)C[C@@](O)(C(=O)CO)C[C@@H]3O[C@H]1C[C@H](N)[C@H](O)[C@H](C)O1 [Doxorubicin, reference compound] | – | – | 6.4 µM | – | – | – | –
Fc1ccc(C2=CCNCC2)cc1 [AM01, 4-(4-fluorophenyl)-1,2,3,6-tetrahydropyridine] | not considered genotoxic | – | – | – | 8.2 ± 2 µM | – | –
O=[N+]([O-])c1ccc(N2CCN(CCC(O)c3csc4ccc(F)cc34)CC2)c(C(F)(F)F)c1 (stereo not shown) [Compound 14, 1-(5-fluorobenzo[b]thiophen-3-yl)-3-[4-(4-nitro-2-trifluoromethylphenyl)piperazin-1-yl] propan-1-ol] | – | no significant inhibition | > 200 µM | >150 | 1.32 ± 0.2 µM | – | –
OC(CCN1CC=C(c2ccc(F)cc2)CC1)c1ccc2ccccc2c1 (stereo not shown) [Compound 19, 3-[4-(4-fluorophenyl)-3,6-dihydropyridin-1(2H)-yl]-1-(naphthalen-2-yl)propan-1-ol] | – | – | 24.6 µM | 1.75 | 14 ± 3.5 µM | – | –
O=[N+]([O-])c1ccc(N2CCC(NCCC(O)c3csc4ccc(F)cc34)CC2)c(C(F)(F)F)c1 (stereo not shown) [Compound 18] | – | no significant inhibition | – | – | – | 0.7 ± 0.1 µM | CC50 [5]: 6.3 µM
